Experimental data from patent US20240025891A1 (Celgene Corporation, priority 2020, published 2024).
pIC50: −log10 of the molar value.

Test system: Onchocerca gutturosa adult male worms
Experiment: Onchocerciasis in vitro screening model Onchocerca gutturosa (worm motility score and MTT/formazan colorimetry)
Settings: Onchocerca gutturosa, read-out: O. gutt Act class
Procedure: Onchocerciasis: In Vitro Screening Model Onchocerca gutturosa
Parasite and cell cultures. Onchocerca gutturosa adult male worms were obtained by dissection from the nuchal ligament connective tissues of naturally infected cattle, from Gambia, W Africa.
The worms were maintained for at least 24 h in culture before use in Eagles Minimum Essential Medium with Earl's Salts (Gibco, UK)+10% heat inactivated new born calf serum (Gibco, UK)+antibiotic cover of 200 units/ml penicillin, 200 μg/ml streptomycin and 0.5 μg/ml amphotericin B (Sigma, UK). Only normally active specimens were used in the test. All cultures and assays were conducted at 37° C. under an atmosphere of 5% CO2 in air.
Drug sensitivity assays. Compound stock solutions were prepared in 100% DMSO unless otherwise indicated and diluted into the medium. Any unused compound stocks were stored at −20° C. Assays were performed in sterile 24-well (2 ml) plates (Falcon, UK).
Worms were then transferred individually to each well of the plate using fine forceps. Worm viability was assessed using 2 parameters: • The measurement of mean worm motility scores on a scale of 0 (immotile) to 10 (maximum) every 24 h, terminating at 120 h, using an Olympus inverted microscope. • The biochemical evaluation of worm viability using MTT/formazan colorimetry. The MTT assay was carried out after the last motility reading (120 h). Single intact worms were placed in each well of a 48-well plate (Falcon, UK) containing 0.5 ml of a solution consisting of 0.5 mg/ml MTT (Sigma UK) in phosphate buffered saline, and then incubated for 30 min at 37° C. The worms were removed, blotted carefully, and individually transferred to separate wells of a 96-well microtiter plate, each containing 200 μl of DMSO to solubilize the formazan. After 1 h the plate was gently agitated to disperse the color evenly and the absorbance value (optical density) of the resulting formazan solution was determined at 490 nm using a multi-well scanning spectrophotometer (Elisa-reader, Dynatech, UK). Inhibition of formazan formation was correlated with worm damage or death.
Primary screen. New compounds were usually tested at 1.25×10^−5 M. Also expressed in μg/ml.
Secondary screen. […] Serial 1 in 4 drug dilutions was carried out to find activity endpoint and EC50 values for motility reduction and inhibition of formazan formation were produced. EC50 values were determined using Excel or Origin V7 scientific graphing and data analysis software.

Compound | pIC50
Cc1ccc(-c2csc(Nc3cc(C)ccn3)n2)nc1 [Example 1, N-(4-Methylpyridin-2-yl)-4-(5-methylpyridin-2-yl)thiazol-2-amine] | > 6.70
Cc1ccnc(Nc2nc(-c3cccc(C)n3)cs2)c1 [Example 2] | 6.30 to 6.70
COc1cccnc1-c1csc(Nc2cc(C)ccn2)n1 [Example 7] | 5.30 to 6.30
CCOc1cccc(-c2csc(Nc3ncccc3C)n2)n1 [Example 71] | 5.30 to 6.30
CCOc1cccnc1-c1csc(Nc2cc(C)ccn2)n1 [Example 72, 4-(3-ethoxypyridin-2-yl)-N-(4-methylpyridin-2-yl)thiazol-2-amine] | > 6.70
CC(=O)N(C)c1cc(C(F)(F)F)cnc1Nc1nc(-c2cc(OC3COC3)ccn2)cs1 [Example 73, N-methyl-N-(2-(4-(4-(oxetan-3-yloxy)pyridin-2-yl)thiazol-2-ylamino)-5-(trifluoromethyl)pyridin-3-yl)acetamide] | 6.30 to 6.70
CCOc1cnc(-c2csc(Nc3cc(C)ccn3)n2)c(C)c1 [Example 74, 4-(5-ethoxy-3-methylpyridin-2-yl)-N-(4-methylpyridin-2-yl)thiazol-2-amine] | > 6.70
CCOc1cnc(-c2csc(Nc3ncccc3C)n2)c(C)c1 [Example 75, 4-(5-ethoxy-3-methylpyridin-2-yl)-N-(3-methylpyridin-2-yl)thiazol-2-amine] | > 6.70
CC(=O)N(C)c1cc(C(F)(F)F)cnc1Nc1nc(-c2cc3c(cn2)N(C)CC3)cs1 [Example 76, N-methyl-N-(2-(4-(1-methyl-2,3-dihydro-1H-pyrrolo[2,3-c]pyridin-5-yl)thiazol-2-ylamino)-5-(trifluoromethyl)pyridin-3-yl)acetamide] | > 6.70
CCOc1cccnc1-c1csc(Nc2ncccc2C)n1 [Example 77, 4-(3-ethoxypyridin-2-yl)-N-(3-methylpyridin-2-yl)thiazol-2-amine] | > 6.70
CCOc1cccc(-c2csc(Nc3cc(C)ccn3)n2)n1 [Example 78, 4-(6-ethoxypyridin-2-yl)-N-(4-methylpyridin-2-yl)thiazol-2-amine] | 5.30 to 6.30
CCOc1ccc(-c2csc(Nc3ncc(F)cc3C)n2)nc1 [Example 79, 4-(5-ethoxypyridin-2-yl)-N-(5-fluoro-3-methylpyridin-2-yl)thiazol-2-amine] | > 6.70
CSc1ccc(-c2csc(Nc3ncccc3C)n2)nc1 [Example 80, N-(3-methylpyridin-2-yl)-4-(5-(methylthio)pyridin-2-yl)thiazol-2-amine] | > 6.70
CCOc1ccc(-c2csc(Nc3ccc(C)cn3)n2)nc1 [Example 81, 4-(5-ethoxypyridin-2-yl)-N-(5-methylpyridin-2-yl)thiazol-2-amine] | > 6.70
CC(=O)N(C)c1cc(C(F)(F)F)cnc1Nc1nc(-c2cc(OC(C)C)ccn2)cs1 [Example 82, N-(2-(4-(4-isopropoxypyridin-2-yl)thiazol-2-ylamino)-5-(trifluoromethyl)pyridin-3-yl)-N-methylacetamide] | > 6.70
CCOc1ccc(-c2csc(Nc3ncccc3C3CC3)n2)nc1 [Example 83, N-(3-cyclopropylpyridin-2-yl)-4-(5-ethoxypyridin-2-yl)thiazol-2-amine] | 6.30 to 6.70
CCOc1ccc(-c2csc(Nc3ncc(C(F)(F)F)cc3C)n2)nc1 [Example 84, 4-(5-ethoxypyridin-2-yl)-N-(3-methyl-5-(trifluoromethyl)pyridin-2-yl)thiazol-2-amine] | 6.30 to 6.70
CCOc1ccc(-c2csc(Nc3ccc(Cl)cn3)n2)nc1 [Example 85, N-(5-chloropyridin-2-yl)-4-(5-ethoxypyridin-2-yl)thiazol-2-amine] | 6.30 to 6.70

Compound | pIC50
CCOc1ccc(-c2csc(Nc3nc(C)ccc3C)n2)nc1 [Example 86, N-(3,6-dimethylpyridin-2-yl)-4-(5-ethoxypyridin-2-yl)thiazol-2-amine] | > 6.70
CCOc1ccc(Nc2nc(-c3ccc(OCC)cn3)cs2)nc1 [Example 87, N,4-bis(5-ethoxypyridin-2-yl)thiazol-2-amine] | > 6.70
CCOc1ccc(-c2csc(Nc3ncc(C)cc3C)n2)nc1 [Example 88, N-(3,5-dimethylpyridin-2-yl)-4-(5-ethoxypyridin-2-yl)thiazol-2-amine] | > 6.70
Cc1ccnc(Nc2nc(-c3ccc(Cl)cn3)cs2)c1 [Example 89, 4-(5-chloropyridin-2-yl)-N-(4-methylpyridin-2-yl)thiazol-2-amine] | 6.30 to 6.70
CCOc1ccc(-c2csc(Nc3cccc(C)n3)n2)nc1 [Example 90, 4-(5-ethoxypyridin-2-yl)-N-(6-methylpyridin-2-yl)thiazol-2-amine] | > 6.70
CCOc1ccc(-c2csc(Nc3cc(C)ccn3)n2)nc1 [Example 91, 4-(5-ethoxypyridin-2-yl)-N-(4-methylpyridin-2-yl)thiazol-2-amine] | > 6.70
Cc1ccnc(Nc2nc(-c3ncccc3C#N)cs2)c1 [Example 92, 2-(2-(4-methylpyridin-2-ylamino)thiazol-4-yl)nicotinonitrile] | > 6.70
CC(=O)N(C)c1cc(C(F)(F)F)cnc1Nc1nc(-c2ccc(OC(C)C)cn2)cs1 [Example 93, N-(2-(4-(5-isopropoxypyridin-2-yl)thiazol-2-ylamino)-5-(trifluoromethyl)pyridin-3-yl)-N-methylacetamide] | > 6.70
Cc1cccnc1Nc1nc(-c2ccc(Cl)cn2)cs1 [Example 94, 4-(5-chloropyridin-2-yl)-N-(3-methylpyridin-2-yl)thiazol-2-amine] | > 6.70
CCOc1ccc(-c2csc(Nc3ccc(C(F)(F)F)cn3)n2)nc1 [Example 95, 4-(5-ethoxypyridin-2-yl)-N-(5-(trifluoromethyl)pyridin-2-yl)thiazol-2-amine] | > 6.70
COc1ccnc(-c2csc(Nc3ncc(C(F)(F)F)cc3N(C)C(C)=O)n2)c1 [Example 96, N-(2-(4-(4-methoxypyridin-2-yl)thiazol-2-ylamino)-5-(trifluoromethyl)pyridin-3-yl)-N-methylacetamide] | 6.30 to 6.70
Cc1cc(C(F)(F)F)cnc1Nc1nc(-c2cc3c(cn2)N(C)CC3)cs1 [Example 97, 4-(1-methyl-2,3-dihydro-1H-pyrrolo[2,3-c]pyridin-5-yl)-N-(3-methyl-5-(trifluoromethyl)pyridin-2-yl)thiazol-2-amine] | > 6.70
Cc1ccnc(Nc2nc(-c3cc(OC4CN(C)C4)ccn3)cs2)c1 [Example 98, 4-(4-(1-methylazetidin-3-yloxy)pyridin-2-yl)-N-(4-methylpyridin-2-yl)thiazol-2-amine] | > 6.70
Cc1ccnc(-c2csc(Nc3ncccc3-c3ccccc3)n2)c1 [Example 99, 4-(4-methylpyridin-2-yl)-N-(3-phenylpyridin-2-yl)thiazol-2-amine] | 5.30 to 6.30
Cc1cccnc1-c1csc(Nc2cc(-c3ccccc3)ccn2)n1 [Example 100, 4-(3-methylpyridin-2-yl)-N-(4-phenylpyridin-2-yl)thiazol-2-amine] | > 6.70
Cc1ccnc(Nc2nc(-c3cc(-c4ccccc4)ccn3)cs2)c1 [Example 101, N-(4-methylpyridin-2-yl)-4-(4-phenylpyridin-2-yl)thiazol-2-amine] | > 6.70
Cc1ccnc(Nc2nc(-c3cc(OC4COC4)ccn3)cs2)c1 [Example 102, N-(4-methylpyridin-2-yl)-4-(4-(oxetan-3-yloxy)pyridin-2-yl)thiazol-2-amine] | > 6.70
